Measured values published in publication PMC9721025, “Pharmacokinetic study of the main components of Tanreqing capsules and Tanreqing injections in beagles by liquid chromatography–tandem mass spectrometry” (Chinese Medicine, 2022).

Legend:
[1] = Pharmacokinetics in beagles, multiple-dose regimen (once per day for 7 days) of TRQI or TRQC, plasma LC-MS/MS; format: in vivo; conditions: beagle, dog; for Cmax at 7 days / Tmax at 7 days / half-life at 7 days: mean
Description: (§1) 100 μL plasma sample was drawn and transferred to 1.5 mL centrifuge tube prior to 300 μL protein precipitant (3:1 [v/v] methanol/acetonitrile, containing 0.1% formic acid and 100 ng/mL IS) was added, and then the sample was vortex-mixed for 3 min. The mixture was centrifuged at 20,000 ×g for 10 min, and 100 μL supernatant was transferred to the injection vial and analyzed directly by LC–MS/MS.
(§2) This study was carried out in six beagles (three males and three females, 9.0–12.0 kg each), that were purchased from Junda Pet Hospital (Shanghai, China). This experimental protocol was approved by the Experimental Animal Ethics Committee of the Naval Military Medical University (Shanghai, China).
After the end of the single-dose experiment, the dogs in group one were given 0.5 mL/kg injection of TRQI once per day for 7 days following the wash out period, and the dogs in group two were given 0.09 g/kg TRQC once per day for 7 days. After the seventh administration, blood samples were collected at 0, 10, 20, and 40 min and then at 1, 1.5, 2, 2.5, 3, 4, 6, 8, 12, and 24 h (a total of 14 time points) and were processed as described in “Single-dose regimen” section. The resulting plasma samples were used to determine the steady-state plasma concentration of TRQI and TRQC. A crossover study was again carried out in both groups, as described in “Single-dose regimen” section, after a 7-day washing period.
(§3) All data obtained were analyzed using Drug and Statistics (DAS) 2.0 software (Chinese Society of Pharmacology), and a non-compartment analysis was used to calculate plasma pharmacokinetic parameters. The principal components of TRQI and TRQC were compared with an analysis of variance (ANOVA) and/or a two-tailed student-t test.

[2] = Stability of analytes in dog plasma (QC samples); format: in vitro ADME
Description: The stock solutions of all analytes were further mixed and diluted with methanol/water (10:90, v/v) solution to prepare the working solutions. […] The QC samples were stored in a refrigerator at – 80 °C until retrieval (see Additional file 1). The stability, which includes short-term stability (6 h at room temperature), long-term stability (− 80 °C for 30 days in the refrigerator), and freeze–thaw stability (three cycles from − 80 °C to room temperature), were assessed using QC samples at three concentration levels in three replicates. […] Similarly, there were no obvious effects on the analysis results of the samples with respect to short-term stability or long-term storage.

[3] = Pharmacokinetics in beagles, single-dose regimen of TRQI (i.v.) or TRQC (oral), plasma LC-MS/MS; format: in vivo, beagle; conditions: beagle, dog, plasma; for AUC(0-t): read-out: AUC0–24 h; for Cmax / Tmax / half-life: mean of six beagles
Description: as §1, §2
The six healthy beagles were divided into two groups: beagles 1–3 were all male and were assigned to the first group, and beagles 4–6 were all females and assigned to the second group. The two-cycle, crossover study was designed with a 7-day wash out period. For the single-administration process, the dogs in the first group were injected intravenously with 0.5 mL/kg TRQI (one-third of the normal daily dose), and blood samples were collected at 0, 5, 10, 15, 20, 30, and 45 min and then at 1, 2, 4, 6, 8, 12, and 24 h (a total of 14 time points) after injection. For each blood sample, 1 mL of blood was collected from the forelimb vein in heparin-treated tubes. The dogs in the second group were orally administrated 0.09 g/kg TRQC (one-third of the normal daily dose, and blood samples were collected in the same manner at 0, 10, 20, and 40 min and then at 1, 1.5, 2, 2.5, 3, 4, 6, 8, 12, and 24 h (a total of 14 time points). All blood samples were centrifuged at 4000 × g for 5 min, and each supernatant was collected and aliquoted. After a 7-day wash out period, the dogs in each group were administrated the other Tanreqing formulation in a crossover design, and blood samples were collected and processed in the same way.
as §3

[4] = both sexes, iv, TRQI 0.5 mL/kg once per day for 7 days
[5] = both sexes, po, TRQC 0.09 g/kg once per day for 7 days
[6] = n = 3, high QC: nominal 200 ng/mL baicalin, 1000 ursodeoxycholic acid, 100 chenodeoxycholic acid and chlorogenic acid
[7] = n = 3, low QC: nominal 4 ng/mL baicalin, 20 ursodeoxycholic acid, 2 chenodeoxycholic acid and chlorogenic acid
[8] = n = 3, middle QC: nominal 20 ng/mL baicalin, 100 ursodeoxycholic acid, 10 chenodeoxycholic acid and chlorogenic acid
[9] = both sexes, iv, single i.v. dose of TRQI 0.5 mL/kg
[10] = both sexes, single oral dose of TRQC 0.09 g/kg

With `O=C(/C=C/c1ccc(O)c(O)c1)O[C@@H]1C[C@](O)(C(=O)O)C[C@@H](O)[C@H]1O` [Chlorogenic acid, chlorogenic acid] the AUC(0-inf) ([1]; both sexes, iv, 0.5 mL/kg, TRQI 0.5 mL/kg for 7 days, Mean) was 15.9 ng·h/mL, the AUC(0-t) ([1]; both sexes, iv, 0.5 mL/kg, TRQI 0.5 mL/kg for 7 days, Mean, read-out: AUC0–24 h) was 15.4 ng·h/mL and the Cmax at 7 days [1, 4] was 20.3 ng/mL. It also gave a Tmax at 7 days [1, 4] of 0.18 h, a half-life at 7 days [1, 4] of 0.88 h and an AUC(0-inf) ([1]; both sexes, po, 0.09 g/kg, TRQC 0.09 g/kg for 7 days, Mean) of 12.3 ng·h/mL. It also gave an AUC(0-t) ([1]; both sexes, po, 0.09 g/kg, TRQC 0.09 g/kg for 7 days, Mean, read-out: AUC0–24 h) of 11.7 ng·h/mL, a Cmax at 7 days [1, 5] of 3.9 ng/mL and a Tmax at 7 days [1, 5] of 3.17 h. The half-life at 7 days [1, 5] was 1.56 h, the AUC(0-inf) ([1]; female, iv, 0.5 mL/kg, TRQI 0.5 mL/kg for 7 days, beagle No. 4) was 19.3 ng·h/mL and the AUC(0-t) ([1]; female, iv, 0.5 mL/kg, TRQI 0.5 mL/kg for 7 days, beagle No. 4, read-out: AUC0–24 h) was 19.1 ng·h/mL. For the same compound, the AUC(0-inf) ([1]; female, iv, 0.5 mL/kg, TRQI 0.5 mL/kg for 7 days, beagle No. 5) was 24.4 ng·h/mL, the AUC(0-t) ([1]; female, iv, 0.5 mL/kg, TRQI 0.5 mL/kg for 7 days, beagle No. 5, read-out: AUC0–24 h) was 23.9 ng·h/mL and the AUC(0-inf) ([1]; female, iv, 0.5 mL/kg, TRQI 0.5 mL/kg for 7 days, beagle No. 6) was 30.7 ng·h/mL. For the same compound, the AUC(0-t) ([1]; female, iv, 0.5 mL/kg, TRQI 0.5 mL/kg for 7 days, beagle No. 6, read-out: AUC0–24 h) was 30 ng·h/mL, the AUC(0-inf) ([1]; female, po, 0.09 g/kg, TRQC 0.09 g/kg for 7 days, beagle No. 4) was 23.2 ng·h/mL and the AUC(0-t) ([1]; female, po, 0.09 g/kg, TRQC 0.09 g/kg for 7 days, beagle No. 4, read-out: AUC0–24 h) was 22.6 ng·h/mL. For the same compound, the AUC(0-inf) ([1]; female, po, 0.09 g/kg, TRQC 0.09 g/kg for 7 days, beagle No. 5) was 13.3 ng·h/mL, the AUC(0-t) ([1]; female, po, 0.09 g/kg, TRQC 0.09 g/kg for 7 days, beagle No. 5, read-out: AUC0–24 h) was 11.4 ng·h/mL and the AUC(0-inf) ([1]; female, po, 0.09 g/kg, TRQC 0.09 g/kg for 7 days, beagle No. 6) was 27 ng·h/mL. The AUC(0-t) ([1]; female, po, 0.09 g/kg, TRQC 0.09 g/kg for 7 days, beagle No. 6, read-out: AUC0–24 h) was 26.9 ng·h/mL, the AUC(0-inf) ([1]; male, iv, 0.5 mL/kg, TRQI 0.5 mL/kg for 7 days, beagle No. 1) was 6.07 ng·h/mL and the AUC(0-t) ([1]; male, iv, 0.5 mL/kg, TRQI 0.5 mL/kg for 7 days, beagle No. 1, read-out: AUC0–24 h) was 6.07 ng·h/mL. It also gave an AUC(0-inf) ([1]; male, iv, 0.5 mL/kg, TRQI 0.5 mL/kg for 7 days, beagle No. 2) of 5.59 ng·h/mL, an AUC(0-t) ([1]; male, iv, 0.5 mL/kg, TRQI 0.5 mL/kg for 7 days, beagle No. 2, read-out: AUC0–24 h) of 5.24 ng·h/mL and an AUC(0-inf) ([1]; male, iv, 0.5 mL/kg, TRQI 0.5 mL/kg for 7 days, beagle No. 3) of 9.2 ng·h/mL. The AUC(0-t) ([1]; male, iv, 0.5 mL/kg, TRQI 0.5 mL/kg for 7 days, beagle No. 3, read-out: AUC0–24 h) was 8.21 ng·h/mL, the AUC(0-inf) ([1]; male, po, 0.09 g/kg, TRQC 0.09 g/kg for 7 days, beagle No. 1) was 1.31 ng·h/mL and the AUC(0-t) ([1]; male, po, 0.09 g/kg, TRQC 0.09 g/kg for 7 days, beagle No. 1, read-out: AUC0–24 h) was 0.72 ng·h/mL. For the same compound, the AUC(0-inf) ([1]; male, po, 0.09 g/kg, TRQC 0.09 g/kg for 7 days, beagle No. 2) was 3.2 ng·h/mL, the AUC(0-t) ([1]; male, po, 0.09 g/kg, TRQC 0.09 g/kg for 7 days, beagle No. 2, read-out: AUC0–24 h) was 3.19 ng·h/mL and the AUC(0-inf) ([1]; male, po, 0.09 g/kg, TRQC 0.09 g/kg for 7 days, beagle No. 3) was 5.62 ng·h/mL. The AUC(0-t) ([1]; male, po, 0.09 g/kg, TRQC 0.09 g/kg for 7 days, beagle No. 3, read-out: AUC0–24 h) was 5.21 ng·h/mL, the “Freeze-thaw stability (3 cycles) Mean ± S.D. concentration” value (from here on “Freeze-thaw stability”) [2, 6] was 95.65 ± 3.72 ng/mL and the “Long-term stability (30 days at – 80 °C) Mean ± S.D. concentration” value (“Long-term stability” below) [2, 6] was 87.31 ± 4.62 ng/mL. For the same compound, the “Short-term stability (6 h at room temperature) Mean ± S.D concentration” value (“Short-term stability” for short) [2, 6] was 88.28 ± 2.72 ng/mL, the “Freeze-thaw stability” value [2, 7] was 2.07 ± 0.17 ng/mL and the “Long-term stability” value [2, 7] was 1.73 ± 0.05 ng/mL. For the same compound, the “Short-term stability” value [2, 7] was 1.98 ± 0.16 ng/mL, the “Freeze-thaw stability” value [2, 8] was 10.03 ± 0.84 ng/mL and the “Long-term stability” value [2, 8] was 8.95 ± 0.42 ng/mL. For the same compound, the “Short-term stability” value [2, 8] was 8.97 ± 0.70 ng/mL, the AUC(0-t) ([3]; both sexes, iv, 0.5 mL/kg, single TRQI 0.5 mL/kg, Mean) was 20.3 ng·h/mL and the Cmax [3, 9] was 26.6 ng/mL. It also gave a Tmax [3, 9] of 0.13 h, a half-life [3, 9] of 0.89 h and an AUC(0-t) ([3]; both sexes, po, 0.09 g/kg, single TRQCs 0.09 g/kg, Mean) of 29.1 ng·h/mL. It also gave a Cmax [3, 10] of 8.58 ng/mL, a Tmax [3, 10] of 3.75 h and a half-life [3, 10] of 1.45 h. It also gave an AUC(0-t) ([3]; female, iv, 0.5 mL/kg, single TRQI 0.5 mL/kg, beagle No 4) of 11.2 ng·h/mL, an AUC(0-t) ([3]; female, iv, 0.5 mL/kg, single TRQI 0.5 mL/kg, beagle No 5) of 15.2 ng·h/mL and an AUC(0-t) ([3]; female, iv, 0.5 mL/kg, single TRQI 0.5 mL/kg, beagle No 6) of 24.8 ng·h/mL. It also gave an AUC(0-t) ([3]; female, po, 0.09 g/kg, single TRQCs 0.09 g/kg, beagle No 4) of 13.9 ng·h/mL, an AUC(0-t) ([3]; male, iv, 0.5 mL/kg, single TRQI 0.5 mL/kg, beagle No 1) of 29.6 ng·h/mL and an AUC(0-t) ([3]; male, iv, 0.5 mL/kg, single TRQI 0.5 mL/kg, beagle No 2) of 17.8 ng·h/mL. The AUC(0-t) ([3]; male, po, 0.09 g/kg, single TRQCs 0.09 g/kg, beagle No 1) was 21.1 ng·h/mL, the AUC(0-t) ([3]; male, po, 0.09 g/kg, single TRQCs 0.09 g/kg, beagle No 2) was 48.1 ng·h/mL and the AUC(0-t) ([3]; male, po, 0.09 g/kg, single TRQCs 0.09 g/kg, beagle No 3) was 33.2 ng·h/mL.
